Experimental data from ChEMBL document CHEMBL4825698, “Identification of novel benzothiopyranones with ester and amide motifs derived from active metabolite as promising leads against Mycobacterium tuberculosis” (Eur J Med Chem, 2021).
Values after ≈ are worked out from the molar mass of the structure shown.

How the values were obtained:
[1] = system: Mycobacterium tuberculosis; experiment: Antimycobacterial activity against Mycobacterium tuberculosis H37Rv assessed as bacterial growth inhibition incubated for 7 days by MABA assay; assay type: functional; conditions: 168 h, time 7 day
Vero = experiment: Cytotoxicity against African green monkey Vero cells assessed as reduction in cell viability after 48 hrs by MTT assay; assay type: cell-based; conditions: Chlorocebus sabaeus
[2] = Metabolic stability in pooled human hepatocytes assessed as half life; assay type: ADME, cell-based, Hepatocyte
[3] = Metabolic stability in pooled mouse hepatocytes assessed as parent compound remaining after 30 mins; assay type: ADME, cell-based, Hepatocyte; conditions: read-out: Stabilty
[4] = Metabolic stability in pooled mouse hepatocytes assessed as half life; assay type: ADME, cell-based, Hepatocyte
[5] = Metabolic Stability in pooled human hepatocytes assessed as parent compound remaining after 30 mins; assay type: ADME, cell-based, Hepatocyte; conditions: read-out: Stabilty
[6] = Solubility of the compound in water measured after 20 mins by HPLC analysis; assay type: physicochemical
[7] = Toxicity in BALB/c mouse infected with Mycobacterium tuberculosis H37Rv assessed as body weight at 100 mg/kg, po via gavage administered for 3 weeks starting from day 10 post infection and administered 5 times a week (reference value: 24.59 +/- 0.61 g); assay type: organism-based; conditions: in vivo, 504 h
[8] = system: Mycobacterium tuberculosis; experiment: Antimycobacterial activity against Mycobacterium tuberculosis H37Rv infected in BALB/c mouse model of acute tuberculosis infection assessed as log change in bacterial burden in mouse lung at 100 mg/kg, po via gavage administered for 3 weeks starting from day 10 post infection and administered 5 times a week (reference value: 4.94 +/-0.06 1og10CFU); assay type: functional

Molecule O=c1cc(N2CCN(CC3CCC(OS(=O)(=O)c4ccc5ccccc5c4)CC3)CC2)sc2c([N+](=O)[O-])cc(C(F)(F)F)cc12 (stereo unspecified) has an MIC [1] of under 0.016 µg/mL and an IC50 (Vero) of over 64 µg/mL.

Molecule CS(=O)(=O)NC1CCC(CN2CCN(c3cc(=O)c4cc(C(F)(F)F)cc([N+](=O)[O-])c4s3)CC2)CC1 (stereo unspecified) has a half-life [2] of over 93.2 min, a remaining at 0.5 h [3] of 111% and a half-life [4] of over 93.2 min. The MIC [1] was over 32 µg/mL, the IC50 (Vero) was 48.4 µg/mL (≈ 88.3 µM) and the remaining at 0.5 h [5] was 105%.

COc1ccc(C(=O)OC2CCC(CN3CCN(c4cc(=O)c5cc(C(F)(F)F)cc([N+](=O)[O-])c5s4)CC3)CC2)cc1 (stereo unspecified) gave a half-life [2] of 9.9 min, a remaining at 0.5 h [3] of 31% and a half-life [4] of 17.7 min. It also gave an MIC [1] of 0.121 µg/mL (≈ 0.2 µM), an IC50 (Vero) of over 64 µg/mL and a remaining at 0.5 h [5] of 12.2%.

CC(=O)NC1CCC(CN2CCN(c3cc(=O)c4cc(C(F)(F)F)cc([N+](=O)[O-])c4s3)CC2)CC1 (stereo unspecified) gave a half-life [2] of over 93.2 min, a remaining at 0.5 h [3] of 94.9% and a half-life [4] of over 93.2 min. The MIC [1] was 4.71 µg/mL (≈ 9.19 µM), the IC50 (Vero) was over 64 µg/mL and the remaining at 0.5 h [5] was 86.8%.

Nc1cc(C(F)(F)F)cc2c(=O)cc(N3CCN(CC4CCC(O)CC4)CC3)sc12 (stereo unspecified) gave a remaining at 0.5 h [3] of 60%, an MIC [1] of over 32 µg/mL and a remaining at 0.5 h [5] of 72.9%.

O=C(OC1CCC(CN2CCN(c3cc(=O)c4cc(C(F)(F)F)cc([N+](=O)[O-])c4s3)CC2)CC1)C1CCCCC1 (stereo unspecified) showed a half-life [2] of 5.8 min, a remaining at 0.5 h [3] of 1.2% and a half-life [4] of 4.7 min. It also gave an MIC [1] of under 0.016 µg/mL, an IC50 (Vero) of over 64 µg/mL and a remaining at 0.5 h [5] of 2.8%.

Molecule O=C(OC1CCC(CN2CCN(c3cc(=O)c4cc(C(F)(F)F)cc([N+](=O)[O-])c4s3)CC2)CC1)c1cccc(C(F)(F)F)c1 (stereo unspecified) has an MIC [1] of under 0.016 µg/mL and an IC50 (Vero) of over 64 µg/mL.

Molecule O=C(OC1CCC(CN2CCN(c3cc(=O)c4cc(C(F)(F)F)cc([N+](=O)[O-])c4s3)CC2)CC1)c1ccc2c(c1)OCC2 (stereo unspecified) has an MIC [1] of 0.179 µg/mL (≈ 0.29 µM) and an IC50 (Vero) of over 64 µg/mL.

Molecule CC(=O)OC1CCC(CN2CCN(c3cc(=O)c4cc(C(F)(F)F)cc([N+](=O)[O-])c4s3)CC2)CC1 (stereo unspecified) has a half-life [2] of under 9 min, a remaining at 0.5 h [3] of 0% and a half-life [4] of under 9 min. For the same molecule, the MIC [1] was under 0.016 µg/mL, the IC50 (Vero) was over 64 µg/mL and the remaining at 0.5 h [5] was 0%.

O=c1cc(N2CCN(CC3CCC(O)CC3)CC2)sc2c([N+](=O)[O-])cc(C(F)(F)F)cc12 (stereo unspecified) gave a solubility at 20 min [6] of 8.3 µg/mL (≈ 17.6 µM), an Activity [7] of 24.75 g and a remaining at 0.5 h [3] of 51.2%. It also gave an MIC [1] of 0.069 µg/mL (≈ 0.146 µM), an Activity [8] of 4.06 log10CFU and a remaining at 0.5 h [5] of 72.7%.

In the case of C=CC(=O)OC1CCC(CN2CCN(c3cc(=O)c4cc(C(F)(F)F)cc([N+](=O)[O-])c4s3)CC2)CC1 (stereo unspecified), the MIC [1] is reported as 0.035 µg/mL (≈ 0.0666 µM) and the IC50 (Vero) is reported as over 64 µg/mL.

COc1cccc(C(=O)OC2CCC(CN3CCN(c4cc(=O)c5cc(C(F)(F)F)cc([N+](=O)[O-])c5s4)CC3)CC2)c1 (stereo unspecified) showed an MIC [1] of under 0.016 µg/mL and an IC50 (Vero) of over 64 µg/mL.

With Cc1cccc(C(=O)OC2CCC(CN3CCN(c4cc(=O)c5cc(C(F)(F)F)cc([N+](=O)[O-])c5s4)CC3)CC2)c1 (stereo unspecified) the MIC [1] was under 0.016 µg/mL and the IC50 (Vero) was over 64 µg/mL.

For NC1CCC(CN2CCN(c3cc(=O)c4cc(C(F)(F)F)cc([N+](=O)[O-])c4s3)CC2)CC1 (stereo unspecified), the solubility at 20 min [6] was 43.9 µg/mL (≈ 93.3 µM), the remaining at 0.5 h [3] was 107% and the MIC [1] was 0.49 µg/mL (≈ 1.04 µM). It also gave a remaining at 0.5 h [5] of 83.6%.

Molecule O=C(OC1CCC(CN2CCN(c3cc(=O)c4cc(C(F)(F)F)cc([N+](=O)[O-])c4s3)CC2)CC1)c1ccc2ccccc2c1 (stereo unspecified) has an MIC [1] of 0.03 µg/mL (≈ 0.0479 µM) and an IC50 (Vero) of over 64 µg/mL.

Molecule O=C(OC1CCC(CN2CCN(c3cc(=O)c4cc(C(F)(F)F)cc([N+](=O)[O-])c4s3)CC2)CC1)C1CCC1 (stereo unspecified) has an MIC [1] of 0.028 µg/mL (≈ 0.0506 µM) and an IC50 (Vero) of over 64 µg/mL.

In the case of COP(=O)(NC1CCC(CN2CCN(c3cc(=O)c4cc(C(F)(F)F)cc([N+](=O)[O-])c4s3)CC2)CC1)OC (stereo unspecified), the MIC [1] is reported as 3.15 µg/mL (≈ 5.45 µM) and the IC50 (Vero) is reported as over 64 µg/mL.

In the case of CC(C)C(=O)OC1CCC(CN2CCN(c3cc(=O)c4cc(C(F)(F)F)cc([N+](=O)[O-])c4s3)CC2)CC1 (stereo unspecified), the MIC [1] is reported as under 0.016 µg/mL and the IC50 (Vero) is reported as over 64 µg/mL.

O=C(OC1CCC(CN2CCN(c3cc(=O)c4cc(C(F)(F)F)cc([N+](=O)[O-])c4s3)CC2)CC1)c1ccccc1 (stereo unspecified) gave a half-life [2] of 36.2 min, a remaining at 0.5 h [3] of 68.1% and a half-life [4] of 54.2 min. The MIC [1] was under 0.016 µg/mL, the IC50 (Vero) was over 64 µg/mL and the remaining at 0.5 h [5] was 56.4%.

Work on O=c1cc(N2CCN(CC3CCC(OS(=O)(=O)c4ccc5c(c4)CCO5)CC3)CC2)sc2c([N+](=O)[O-])cc(C(F)(F)F)cc12 (stereo unspecified) yielded an MIC [1] of under 0.016 µg/mL and an IC50 (Vero) of over 64 µg/mL.
